Results: ChEMBL document CHEMBL3885881, “DrugMatrix”

Organism: Rattus norvegicus
Experiment: DrugMatrix - Regimen: Daily Repeat
Type: toxicity, organism-based, Sprague-Dawley
Set-up: regimen Daily Repeat, gender Male, age 6-8 weeks
Conditions: in vivo, sc, […], route mini-PUMP - SUBCUTANEOUS, dose 0.065 mg/Kg, dose level High, vehicle 100 % SALINE; for ABSOLUTE BASOPHIL / ABSOLUTE EOSINOPHIL / ABSOLUTE LYMPHOCYTE / ABSOLUTE MONOCYTE / ABSOLUTE SEGMENTED NEUTROPHIL / BASOPHIL / EOSINOPHIL / ERYTHROCYTE COUNT / HEMATOCRIT / HEMOGLOBIN / LEUKOCYTE COUNT / LYMPHOCYTE / MEAN CORPUSCULAR HEMOGLOBIN / MEAN CORPUSCULAR HEMOGLOBIN CONCENTRATION / MEAN CORPUSCULAR VOLUME / MONOCYTE / NEUTROPHIL / NUCLEATED RED BLOOD CELLS / PLATELET COUNT: tissue Blood; for ALANINE AMINOTRANSFERASE / ALBUMIN / ALKALINE PHOSPHATASE / ASPARTATE AMINOTRANSFERASE / BLOOD UREA NITROGEN / CARBON DIOXIDE / CHLORIDE / CHOLESTEROL / CREATININE / GLUCOSE / LACTATE DEHYDROGENASE / LIPASE / PHOSPHORUS / POTASSIUM / SODIUM / TOTAL BILIRUBIN / TOTAL PROTEIN / URIC ACID: tissue Plasma

C[C@]12CCC(=O)C=C1CC[C@@H]1[C@@H]2[C@@H](O)C[C@]2(C=O)[C@@H](C(=O)CO)CC[C@@H]12 [ALDOSTERONE]
ABSOLUTE BASOPHIL (72 h, time 3 day): 0 CELLS/uL | ABSOLUTE EOSINOPHIL (72 h, time 3 day): 0 CELLS/uL | ABSOLUTE LYMPHOCYTE (72 h, time 3 day): 11286 CELLS/uL | ABSOLUTE MONOCYTE (72 h, time 3 day): 180.67 CELLS/uL | ABSOLUTE SEGMENTED NEUTROPHIL (72 h, time 3 day): 1866.67 CELLS/uL | BASOPHIL (72 h, time 3 day): 0% | EOSINOPHIL (72 h, time 3 day): 0% | ERYTHROCYTE COUNT (72 h, time 3 day): 5.69 x10E6/uL | HEMATOCRIT (72 h, time 3 day): 34.17% | HEMOGLOBIN (72 h, time 3 day): 12.73 G/DL | LEUKOCYTE COUNT (72 h, time 3 day): 13.33 x10E3/uL | LYMPHOCYTE (72 h, time 3 day): 84.67% | MEAN CORPUSCULAR HEMOGLOBIN (72 h, time 3 day): 22.37 pg | MEAN CORPUSCULAR HEMOGLOBIN CONCENTRATION (72 h, time 3 day): 37.3 G/DL | MEAN CORPUSCULAR VOLUME (72 h, time 3 day): 60.03 fL | MONOCYTE (72 h, time 3 day): 1.33% | NEUTROPHIL (72 h, time 3 day): 14% | NUCLEATED RED BLOOD CELLS (72 h, time 3 day): 0.33 /100WBC | PLATELET COUNT (72 h, time 3 day): 1067.67 x10E3/uL | ALANINE AMINOTRANSFERASE (72 h, time 3 day): 52.33 u/L | ALBUMIN (72 h, time 3 day): 3.8 G/DL | ALKALINE PHOSPHATASE (72 h, time 3 day): 293.67 u/L | ASPARTATE AMINOTRANSFERASE (72 h, time 3 day): 90 u/L | BLOOD UREA NITROGEN (72 h, time 3 day): 15.67 mg/dL | CARBON DIOXIDE (72 h, time 3 day): 32 mmol/L | CHLORIDE (72 h, time 3 day): 100 MEQ/L | CHOLESTEROL (72 h, time 3 day): 66.33 mg/dL | CREATININE (72 h, time 3 day): 0.14 mg/dL | GLUCOSE (72 h, time 3 day): 146 mg/dL | LACTATE DEHYDROGENASE (72 h, time 3 day): 443 u/L | LIPASE (72 h, time 3 day): 9.33 u/L | PHOSPHORUS (72 h, time 3 day): 11.27 mg/dL | POTASSIUM (72 h, time 3 day): 5.07 MEQ/L | SODIUM (72 h, time 3 day): 146.93 MEQ/L | TOTAL BILIRUBIN (72 h, time 3 day): 0.2 mg/dL | TOTAL PROTEIN (72 h, time 3 day): 5.73 G/DL | URIC ACID (72 h, time 3 day): 1.5 mg/dL | ABSOLUTE BASOPHIL (120 h, time 5 day): 0 CELLS/uL | ABSOLUTE EOSINOPHIL (120 h, time 5 day): 69 CELLS/uL | ABSOLUTE LYMPHOCYTE (120 h, time 5 day): 17030 CELLS/uL | ABSOLUTE MONOCYTE (120 h, time 5 day): 489 CELLS/uL | ABSOLUTE SEGMENTED NEUTROPHIL (120 h, time 5 day): 1812 CELLS/uL | BASOPHIL (120 h, time 5 day): 0% | EOSINOPHIL (120 h, time 5 day): 0.33% | ERYTHROCYTE COUNT (120 h, time 5 day): 5.8 x10E6/uL | HEMATOCRIT (120 h, time 5 day): 34.77% | HEMOGLOBIN (120 h, time 5 day): 12.97 G/DL | LEUKOCYTE COUNT (120 h, time 5 day): 19.4 x10E3/uL | LYMPHOCYTE (120 h, time 5 day): 87.33% | MEAN CORPUSCULAR HEMOGLOBIN (120 h, time 5 day): 22.4 pg | MEAN CORPUSCULAR HEMOGLOBIN CONCENTRATION (120 h, time 5 day): 37.3 G/DL | MEAN CORPUSCULAR VOLUME (120 h, time 5 day): 60.03 fL | MONOCYTE (120 h, time 5 day): 2.67% | NEUTROPHIL (120 h, time 5 day): 9.67% | NUCLEATED RED BLOOD CELLS (120 h, time 5 day): 0 /100WBC | PLATELET COUNT (120 h, time 5 day): 1473 x10E3/uL | ALANINE AMINOTRANSFERASE (120 h, time 5 day): 47.67 u/L | ALBUMIN (120 h, time 5 day): 3.77 G/DL | ALKALINE PHOSPHATASE (120 h, time 5 day): 252 u/L | ASPARTATE AMINOTRANSFERASE (120 h, time 5 day): 83 u/L | BLOOD UREA NITROGEN (120 h, time 5 day): 11.33 mg/dL | CARBON DIOXIDE (120 h, time 5 day): 36.33 mmol/L | CHLORIDE (120 h, time 5 day): 96.67 MEQ/L | CHOLESTEROL (120 h, time 5 day): 64.33 mg/dL | CREATININE (120 h, time 5 day): 0.13 mg/dL | GLUCOSE (120 h, time 5 day): 142.67 mg/dL | LACTATE DEHYDROGENASE (120 h, time 5 day): 335 u/L | LIPASE (120 h, time 5 day): 9 u/L | PHOSPHORUS (120 h, time 5 day): 11.97 mg/dL | POTASSIUM (120 h, time 5 day): 5.4 MEQ/L | SODIUM (120 h, time 5 day): 147.3 MEQ/L | TOTAL BILIRUBIN (120 h, time 5 day): 0.17 mg/dL | TOTAL PROTEIN (120 h, time 5 day): 5.53 G/DL | URIC ACID (120 h, time 5 day): 1.93 mg/dL | ABSOLUTE BASOPHIL (time 14 day): 0 CELLS/uL | ABSOLUTE EOSINOPHIL (time 14 day): 65.4 CELLS/uL | ABSOLUTE LYMPHOCYTE (time 14 day): 13364.4 CELLS/uL | ABSOLUTE MONOCYTE (time 14 day): 314 CELLS/uL | ABSOLUTE SEGMENTED NEUTROPHIL (time 14 day): 2076.2 CELLS/uL | BASOPHIL (time 14 day): 0% | EOSINOPHIL (time 14 day): 0.6% | ERYTHROCYTE COUNT (time 14 day): 6.35 x10E6/uL | HEMATOCRIT (time 14 day): 37.42% | HEMOGLOBIN (time 14 day): 13.62 G/DL | LEUKOCYTE COUNT (time 14 day): 15.82 x10E3/uL | LYMPHOCYTE (time 14 day): 84% | MEAN CORPUSCULAR HEMOGLOBIN (time 14 day): 21.48 pg | MEAN CORPUSCULAR HEMOGLOBIN CONCENTRATION (time 14 day): 36.4 G/DL | MEAN CORPUSCULAR VOLUME (time 14 day): 59.08 fL | MONOCYTE (time 14 day): 2% | NEUTROPHIL (time 14 day): 13.4% | NUCLEATED RED BLOOD CELLS (time 14 day): 0 /100WBC | PLATELET COUNT (time 14 day): 1043.2 x10E3/uL | ALANINE AMINOTRANSFERASE (time 14 day): 55.8 u/L | ALBUMIN (time 14 day): 4.14 G/DL | ALKALINE PHOSPHATASE (time 14 day): 346.6 u/L | ASPARTATE AMINOTRANSFERASE (time 14 day): 86.8 u/L | BLOOD UREA NITROGEN (time 14 day): 12.2 mg/dL | CARBON DIOXIDE (time 14 day): 43 mmol/L | CHLORIDE (time 14 day): 94.2 MEQ/L | CHOLESTEROL (time 14 day): 64.6 mg/dL | CREATININE (time 14 day): 0.17 mg/dL | GLUCOSE (time 14 day): 150.2 mg/dL | LACTATE DEHYDROGENASE (time 14 day): 88.6 u/L | LIPASE (time 14 day): 9.2 u/L | PHOSPHORUS (time 14 day): 11.36 mg/dL | POTASSIUM (time 14 day): 4.4 MEQ/L | SODIUM (time 14 day): 147.78 MEQ/L | TOTAL BILIRUBIN (time 14 day): 0.14 mg/dL | TOTAL PROTEIN (time 14 day): 6.2 G/DL | URIC ACID (time 14 day): 1.72 mg/dL
